The values below come from patent US7612080B2, “GTPase inhibitors and use thereof for controlling platelet hyperactivity” (Cincinnati Children's Hospital Medical Center, priority 2004, dated 2009).

In experiment [1] the test system is PC-3 cells. As to the kind of experiment: Matrigel cell invasion assay. To be noted: 25 μM compound, 24 hrs.
Experimental: Cell invasion assays. The cell invasion assays are performed using 6.4-mm Biocoat Matrigel invasion chambers with 8.0-micron pore size PET membrane (Becton-Dickinson) according to the manufactory instructions. Briefly, 5×10^4 cells are resuspended in 0.5 ml of serum free culture medium and added to the upper chamber. 10% fetal bovine serum in the culture medium is used as a chemo-attractant in the lower chamber. After the cells are incubated for overnight, the number of cell passed through the Matrigel is counted.
Cells invaded through Matrigel matrix were visualized with Giemasa staining.
The target of experiment [2] is PDZ-RhoGEF-stimulated mantGDP/GTP exchange of RhoA (Homo sapiens, UniProt P61586). As to the kind of experiment: In vitro guanine nucleotide exchange assay (mant-GDP), RhoA/PDZ-RhoGEF. Format: biochemical. The settings on record: 200 μM compound.
Chain of PDZ-RhoGEF-stimulated mantGDP/GTP exchange of RhoA (P61586 whole entry): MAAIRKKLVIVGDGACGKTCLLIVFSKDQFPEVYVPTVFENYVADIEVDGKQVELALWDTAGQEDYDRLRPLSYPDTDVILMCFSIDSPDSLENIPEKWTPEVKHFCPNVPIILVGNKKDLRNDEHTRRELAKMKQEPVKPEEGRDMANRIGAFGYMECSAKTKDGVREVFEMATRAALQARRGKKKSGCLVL
Experiment [3] relates to PC-3 cells. As to the kind of experiment: PC-3 cell proliferation (CellTiter 96 AQueous assay). To be noted: 5% calf serum, indicated concentrations.
Experimental: Cell growth assay. […] The growth rate of the prostate PC-3 cells is measured by the CellTiter 96 AQueous assay (Promega). 1,500 cells/well in 200 μl of 5% FBS medium are plated in 96-well plates and are grown under normal conditions. Cultures are assayed in 0, 1, 2, 3, 4, or 5 days by the addition of 20 μl of the combined MTS/PMS solution followed by incubation for one hour at 37° C. Absorbency is measured at a wavelength of 490 nm on an automated microplate reader.
The cells were split in triplicate in 96-wells at 1.5×10^3 cells per well. Cell numbers were assayed by using CellTiter 96 AQueous cell proliferation assay kit in different days.
The test system of a further experiment is NIH 3T3 cells. As to the kind of experiment: Cell growth assay of wild type, L61Rac1- or GEF-expressing NIH 3T3 cells. The settings on record: 100 μM compound. Format: cell-based. The source says:
The cells were split in triplicate in 6-well plates at a density of 5×10^4 cells per well. […] The foci numbers of the respective cells were quantified 14 days after transfection. […] The number and the morphology of the colonies were examined under a microscope.
Due to their ability to directly activate Rho GTPases, Db1 family GEFs are potent stimulators of cell proliferation.

The target in another experiment is T1, endogenous RhoA (Mus musculus, UniProt Q9QUI0).
T1 construct: endogenous in cells; host or cells: NIH 3T3 fibroblasts
T1 sequence (Q9QUI0 whole entry): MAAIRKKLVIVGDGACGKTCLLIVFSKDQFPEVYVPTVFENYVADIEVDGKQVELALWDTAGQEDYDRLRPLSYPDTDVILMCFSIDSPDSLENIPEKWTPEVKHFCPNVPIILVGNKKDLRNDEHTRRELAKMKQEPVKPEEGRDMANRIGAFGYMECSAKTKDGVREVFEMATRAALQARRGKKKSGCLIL
As to the kind of experiment: Endogenous Rho GTPase activity assay (GST-Rhotekin pull-down), RhoA in NIH 3T3 cells. Type of experiment: cell-based. The settings on record: 10% serum.

Experiment [4] relates to PC-3 cells. As to the kind of experiment: Anchorage independent growth in soft agar.
In experiment [5] the target is T2, RhoA binding to PDZ-RhoGEF (Homo sapiens, UniProt P61586).
T2 construct: made in house; host or cells: Cos-7 cells (PDZ-RhoGEF, used as lysate)
T2 sequence (P61586 whole entry): as the sequence (P61586 whole entry) above
As to the kind of experiment: Complex formation assay, RhoA with PDZ-RhoGEF. How it is done:
Trio and Tiam-1 co-precipitate with GST-Rac1, but not GST or GST-Cdc42.
After an incubation at 4° C. for 30 minutes, the beads associated (His)6-TrioN were detected by anti-His Western blotting. The blots were quantified by densitometry analysis. The results are representative of three measurements. […] The association of Rac1 with Tiam1 was examined by anti-His blot after anti-myc immunoprecipitation. […] The RhoA associated PDZ-RhoGEF was probed with anti-AU antibody after affinity precipitation by glutathione agarose beads.

For a further experiment, the system named is Swiss3T3 cells. As to the kind of experiment: Immunofluorescence of PDGF-stimulated lamellipodia formation. The settings on record: 100 μM compound, 10 nM PDGF.
The next experiment has as its system platelets. As to the kind of experiment: Platelet adhesion, secretion and aggregation elicited by agonists. Format: cell-based, mouse and human. To be noted: induced by ADP, PLC, U46619, collagen, thrombin, or phorbol ester. The text has this: In the studies disclosed hereinbelow, a dual approach of genetic targeting of Rac GTPases in mice and specific pharmacological inhibition of Rac GTPases in both mouse and human platelets was used to establish the central role of Rac GTPases in platelet function.
Treatment of mice with Compound NCI23766, Formula IV. […] This process was described above in the Experimental section of this document.

Experimental for Swiss3T3 cells: Immunofluorescence. […] The cellular actin is stained with TRITC-labeled phalloidin (Sigma) at 10 μg/ml in PBS for 40 min at room temperature. The actin and cell morphological changes are visualized by fluorescence microscopy.
The cells were fixed and stained with Rhodamine-labeled phalloidin.

Consider `CCN(CC)CCCC(C)Nc1nc(C)cc(Nc2ccc3nc(C)cc(N)c3c2)n1` (racemic) [Compound NCI23766, N6-(2-((4-(diethylamino)-1-methylbutyl)amino)-6-methyl-4-pyrimidinyl)-2-methyl-4,6-quinolinediamine], for which the PC-3 cell invasion entry in the experiment with PC-3 cells [1] is “significantly inhibits”. Besides, the “effect on PDZ-RhoGEF-stimulated mantGDP/GTP exchange of RhoA” value in [2] is listed as “little impact”. Also, the “proliferation rates of PC-3 cells” value in the experiment on PC-3 cells [3] is reported as “inhibited by Compound NCI23766 in a dose dependent manner”. Moreover, in the experiment on NIH 3T3 cells (5% serum), the “growth of wild type NIH 3T3 cells” value is “slow the growth” and the “growth rate of Rac1L61 expressing cells” value is “no effect”. The “cell growth induced by the Rac specific GEF Trio” value in the experiment with NIH 3T3 cells (NIH 3T3, 5% serum) was “capable of inhibiting”. Also, on endogenous RhoA, the “level of RhoA-GTP in cells” value was “slightly increased level”. Also, the “size of colonies of treated cells versus untreated” value in the experiment on PC-3 cells [4] is recorded as “much smaller”. Further, the colony-forming activities remaining result with PC-3 cells [4] (25 μM compound) is “Approximately 10%”. Moreover, the colony-forming activities remaining with PC-3 cells [4] (50 μM compound) was ~1%. Further, in experiment [5], the “interference with RhoA binding to PDZ-RhoGEF” value was “does not interfere”. Moreover, the “PDGF induction of lamellipodia at the cell edges” value in the experiment with Swiss3T3 cells (5 min) is recorded as “only marginally effective”. In addition, in the experiment with Swiss3T3 cells (10 min), the “PDGF induction of lamellipodia at the cell edges” value is reported as “completely ineffective”. Moreover, in the experiment with platelets, the platelet adhesion result was “worked remarkably in inhibiting”, the platelet aggregation result is listed as “worked remarkably in inhibiting” and the platelet secretion result is “worked remarkably in inhibiting”.
